# Measured values reported in US20070172912A1, “Method for fluorescently staining tissue” (PENTAX Corporation, priority 2006, published 2007).
# Tested on: slices of the large intestines
# Experiment: Degree of permeation of staining solution in slices of large intestines, varying pH
# Set-up: species or system rat
# Details: 0.1 mg/mL, pH 4.0, 5.0, 6.0, 7.0 and saline
# Description: Slices of the large intestines used in Example 4 were observed, and the degree of permeation of a staining solution was observed. Fluorescein sodium was adjusted to 0.1 mg/mL in the same way as in Example 4 by dilution with solutions with pH 4.0, 5.0, 6.0, and 7.0 and a saline. Imaging was performed with a fluorescence microscope (manufactured by ZEISS, LSM510) under imaging conditions including a pinhole diameter of 1.0 and Max, and 20× and 40× lenses were used.
smiles,measurement,value
"O=C1OC2(c3ccc(O)cc3Oc3cc(O)ccc32)c2ccccc21 [F—Na, fluorescein sodium]",difference in the degree of permeation into the tissues between staining solutions with varying pH,no significant difference
